Measured values from publication PMC4515242, “ESR and X-ray Structure Investigations on the Binding and Mechanism of Inhibition of the Native State of Myeloperoxidase with Low Molecular Weight Fragments” (Applied Magnetic Resonance, 2015).

What was measured:
[1] = molecular target: T1, native state (Fe3+) of hMPO (Homo sapiens, UniProt P05164); assay: Low temperature ESR binding assay (binding-induced g shift, Rrelative); settings: for ESR Rrelative: Rrelative = (Rbound - Rnative)/Rnative x 100, inhibitor:MPO 40:1, pH 6, 6 % DMSO, 4-7 K; for Δg: absolute difference between g X and g Y of the bound complex; for ESR Binding: class by Rrelative, inhibitor:MPO 40:1; for g X / g Y: electronic g value of the bound complex, X-band ESR, 5 K
T1 construct: purchased Athens Research and Technology
T1 sequence (P05164 49-745): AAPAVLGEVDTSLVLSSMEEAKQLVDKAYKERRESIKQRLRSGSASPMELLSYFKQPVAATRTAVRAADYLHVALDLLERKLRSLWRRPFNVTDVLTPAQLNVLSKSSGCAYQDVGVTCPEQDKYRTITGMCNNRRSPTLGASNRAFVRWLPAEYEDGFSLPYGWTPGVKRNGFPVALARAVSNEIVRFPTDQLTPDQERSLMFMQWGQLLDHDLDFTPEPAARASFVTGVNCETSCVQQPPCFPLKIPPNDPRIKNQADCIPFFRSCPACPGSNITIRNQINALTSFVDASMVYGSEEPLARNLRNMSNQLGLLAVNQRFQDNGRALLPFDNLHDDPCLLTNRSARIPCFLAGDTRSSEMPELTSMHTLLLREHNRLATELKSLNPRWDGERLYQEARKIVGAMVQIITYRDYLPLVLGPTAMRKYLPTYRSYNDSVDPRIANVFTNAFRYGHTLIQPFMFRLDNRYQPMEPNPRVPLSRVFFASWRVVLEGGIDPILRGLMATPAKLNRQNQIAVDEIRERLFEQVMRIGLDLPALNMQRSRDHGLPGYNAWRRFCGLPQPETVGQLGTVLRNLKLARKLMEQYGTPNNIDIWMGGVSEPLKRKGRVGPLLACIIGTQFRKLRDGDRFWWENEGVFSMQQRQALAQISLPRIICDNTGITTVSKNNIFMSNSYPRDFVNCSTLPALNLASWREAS
Experimental: After 5-min. incubation at room temperature, the entire reaction mixture (0.235 mL) was transferred to the ESR quartz tubes. To avoid the quartz tubes breaking during the rapid freezing cycles, the ESR tubes were initially frozen in a 1:1 Isopentane-Cyclohexane mixture cooled with dry ice powder and then transferred to a liquid nitrogen Dewar to be queued up for ESR measurements. The reaction mixture contained a final concentration of 6 % DMSO. ESR spectra were recorded on a Varian E-12, X-band spectrometer equipped with an Air Products liquid helium cryostat.
The experimental g values correspond to the spin Hamiltonian pertinent to the high-spin ion (S = 5/2).1 H=DSZ2-1/3SS+1+E/DSX2-SY2+βgeS.Be where D and E are the eigen values of the axial and rhombic field components, i.e., the symmetry of the ligand (inhibitors approaching heme in this case). […] When the heme lodges inside the protein, the protein side chain amino acid (histidine) approaches the heme vicinity and either binds (axially) directly to the iron in the heme pocket. […] Thus, the fifth ligand leads to lower (rhombic) symmetries causing the signal at g ~ 6 to split. This non-tetragonal splitting of the heme is quantitated by the relationship,2 E/D=Δg/48 where ∆g represents the absolute difference between the gX and gY components. Alternatively, making use of the fact that E/D maximum value = 1/3, one can simplify the above expression as a percentage of rhombicity, R:3 R=Δg/16×100%. […] To rank-order molecules in terms of their ability to distort the heme pocket/plane environment, we used a ratio of total distortion in the bound complex w.r.t. distortion seen in the native unbound enzyme:4 Rrelative=Rbound-Rnative/Rnative×100.
From the relative rhombicities of the bound and unbound complex, a measure of the strength of binding could be derived. […] For the ease of classification, we have empirically defined those with 5 ≤ Rrelative ≥ 2 as weak binding; 15 ≥ Rrelative ≥ 10 as moderate binding; and 25 ≥ Rrelative ≥ 15 as strong binding (Table 2).

[2] = molecular target: T2, Human Myeloperoxidase (Homo sapiens, UniProt P05164); assay: X-ray co-crystal growth by soaking MPO crystals with inhibitor; settings: crystals soaked with 50 mM inhibitor
T2 construct: purchased Lee Biosciences 426-10
T2 sequence (P05164 49-745): T1 sequence (P05164 49-745)
Experimental: Human Myeloperoxidase and co-crystals of MPO were crystallized and analyzed using methods similar to those described by Davey and Fenna. Briefly, hanging drops of 25 mg/mL MPO, 25 mM sodium acetate pH 5.0, 50 mM NaCl, 50 mM ammonium sulfate, 2 mM calcium chloride, and 3-10 % polyethylene glycol 8000 were set up at 21 °C over reservoir solutions containing 300 mM sodium chloride. Crystals of the space group P21 and having two MPO subunits per asymmetric unit grew with the aid of micro-seeding as very thin plates having a brownish orange tinge. Crystals were soaked with inhibitor compounds at a concentration of 50 mM, in a stabilizing buffer containing 18 % polyethylene glycol 8000, 56 mM ammonium sulfate, 2.2 mM calcium acetate, and 56 mM HEPES pH 7.0. Co-crystals were cryo-protected in a stabilizing buffer containing 22.2 % methylpentanediol prior to flash cooling in liquid nitrogen.
Diffraction data were collected at 100 K using Synchrotron beam line 31ID at the Advanced Photon Source (Argonne National Laboratory) and were integrated using MOSFLM v.6.2.6 [18]. […] Inhibitor binding to the MPO heme group was indicated by appropriately shaped peaks in the Fo–Fc electron density maps. The inhibitor was included in the model, and iterative cycles of manual model building with COOT [20] and restrained refinement with REFMAC v5.2.0019 [21] were used to complete the overall structure. Figures of the crystal structure were generated using PYMOL (www.pymol.org). […] The higher B-factors for the inhibitor molecules could be attributed to inhibitor occupancies of less than 1.0 or to higher degrees of thermal motion associated with the inhibitors. Lower than expected electron density peak heights were also observed for the Cl atom in the inhibitors, which could be due to the radiation damage to this X-Ray sensitive group.

[3] = ESR, Inhibitor:MPO ratio 40:1, DMSO 6 %

| proportion of the enzyme bound [1, 3] [%] | proportion of the enzyme unbound [1, 3] [%] | ESR Rrelative [1] | Δg [1] | g X [1] | g Y [1] | X ray Cocrystal result [2] | SMILES | ESR Binding [1] |
| --- | --- | --- | --- | --- | --- | --- | --- | --- |
| 70 | 30 | 24.2 | 2.256 | 6.995 | 4.739 | Yes | O=C(O)c1nn(-c2ccccc2)cc1O [LSN17948] | Strong (25 ≥ Rrelative ≥ 15 as strong binding) |
|  |  | 14.1 | 2.09 | 6.917 | 4.827 | Yes | O=C(O)c1n[nH]c(-c2ccccc2)c1O [LSN87637] | Moderate (15 ≥ Rrelative ≥ 10 as moderate binding) |
|  |  | 29.1 | 2.308 | 7.0681 | 4.7601 | Yes | O=C(O)c1nn(-c2cccc3ccccc23)cc1O [LSN2944556] | Strong (25 ≥ Rrelative ≥ 15 as strong binding) |
